According to the supplement of paper PMC10307832:

Columns and labels:
Assay in all cases: relative viability (nuclei count vs DMSO), 5 days (fraction); higher = more cells survive
[1] = compound: CCN1CCN(c2ccc(Nc3cc(N(C)C(=O)Nc4c(Cl)c(OC)cc(OC)c4Cl)ncn3)cc2)CC1 [BGJ398] + CS(=O)(=O)CCNCc1ccc(-c2ccc3ncnc(Nc4ccc(OCc5cccc(F)c5)c(Cl)c4)c3c2)o1 [Lapatinib] (partner 2 µM)
How it was run: (§1)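 Dosing by pin tool came one day after lung cancer cell lines were seeded in 1536-well plates, using either one drug or a fixed anchor-drug dose plus five library-drug doses (not always all listed) in √10 steps. After 5 days, nuclei were counted on 4× images. Relative viability is treated-well nuclei count divided by vehicle-well nuclei count, and values are medians of duplicate plates.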

[2] = compound: C1=CC2=NC=CN=C2C=C1/C=C/3\C(=O)NC(=O)S3 + CS(=O)(=O)CCNCc1ccc(-c2ccc3ncnc(Nc4ccc(OCc5cccc(F)c5)c(Cl)c4)c3c2)o1 [Lapatinib] (partner 2 µM)
How it was run: as §1

[3] = compound: CCN1CCN(c2ccc(Nc3cc(N(C)C(=O)Nc4c(Cl)c(OC)cc(OC)c4Cl)ncn3)cc2)CC1 [BGJ398] + Cc1nc(NC(=O)N2CCC[C@H]2C(N)=O)sc1-c1ccnc(C(C)(C)C(F)(F)F)c1 [Alpelisib] (partner 2 µM)
How it was run: as §1

[4] = compound: C1=CC2=NC=CN=C2C=C1/C=C/3\C(=O)NC(=O)S3 + CS(=O)(=O)N1CCN(Cc2cc3nc(-c4cccc5[nH]ncc45)nc(N4CCOCC4)c3s2)CC1 [Pictilisib] (partner 1 µM)
How it was run: as §1

| Cell Line | relative viability ([1]; first compound 0.01 µM) | relative viability ([1]; first compound 0.1 µM) | relative viability ([1]; first compound 0.3162 µM) | relative viability ([1]; first compound 1 µM) | relative viability ([2]; first compound 0.02 µM) | relative viability ([2]; first compound 0.06325 µM) | relative viability ([2]; first compound 0.2 µM) | relative viability ([2]; first compound 0.6325 µM) | relative viability ([2]; first compound 2 µM) | relative viability ([3]; first compound 0.01 µM) | relative viability ([3]; first compound 0.1 µM) | relative viability ([3]; first compound 0.3162 µM) | relative viability ([3]; first compound 1 µM) | relative viability ([4]; first compound 0.02 µM) | relative viability ([4]; first compound 0.06325 µM) | relative viability ([4]; first compound 0.2 µM) | relative viability ([4]; first compound 0.6325 µM) | relative viability ([4]; first compound 2 µM) | relative viability ([1]; first compound 0.03162 µM) | relative viability ([3]; first compound 0.03162 µM) |
| --- | --- | --- | --- | --- | --- | --- | --- | --- | --- | --- | --- | --- | --- | --- | --- | --- | --- | --- | --- | --- |
| H3255 | 0.288 | 0.238 | 0.241 | 0.219 | 0.318 | 0.241 | 0.282 | 0.238 | 0.217 | 0.676 | 0.747 | 0.37 | 0.792 | 0.537 | 0.55 | 0.464 | 0.503 | 0.426 |  |  |
| 201T | 1.14 | 0.997 | 1.02 | 0.697 | 0.854 | 1.02 | 0.979 | 0.972 | 0.8 | 1.08 | 0.893 | 0.964 | 0.994 | 0.606 | 0.799 | 0.712 | 0.666 | 0.573 | 1.02 | 1.01 |
| NCI-H2126 | 0.808 | 0.764 | 0.785 | 0.678 | 0.625 | 0.898 | 0.758 | 0.739 | 0.361 | 0.78 | 0.735 | 0.766 | 0.853 | 0.448 | 0.56 | 0.498 | 0.474 | 0.411 | 0.765 | 0.746 |
| HOP-62 | 0.965 | 1.18 | 1.02 | 1.04 | 1.04 | 0.796 | 0.944 | 1.05 | 0.958 | 0.721 | 0.824 | 0.861 | 0.984 | 0.409 | 0.92 | 0.695 | 0.861 | 0.662 | 1.16 | 1.02 |
| CAL-12T | 0.661 | 0.763 | 0.726 | 0.585 | 0.512 | 0.708 | 0.659 | 0.629 | 0.751 | 1.11 | 1.25 | 1.36 | 1.47 | 0.341 | 0.444 | 0.716 | 0.39 | 0.64 | 0.685 | 1.37 |
| NCI-H520 | 0.747 | 0.661 | 0.339 | 0.281 | 0.842 | 0.92 | 0.832 | 0.757 | 0.882 | 0.888 | 0.506 | 0.414 | 0.243 | 0.306 | 0.356 | 0.32 | 0.242 | 0.246 | 0.722 | 0.886 |
| NCI-H1755 | 1.01 | 1.05 | 1.01 | 1.01 | 0.926 | 0.951 | 1.04 | 0.988 | 0.928 | 0.861 | 1.05 | 0.908 | 0.889 | 0.423 | 0.403 | 0.515 | 0.449 | 0.426 | 1.04 | 0.965 |
| NCI-H2023 | 0.766 | 0.743 | 0.894 | 0.742 | 0.872 | 0.735 | 1.01 | 0.764 | 0.466 | 0.576 | 0.534 | 0.586 | 0.579 | 0.236 | 0.27 | 0.26 | 0.223 | 0.16 | 0.872 | 0.644 |
| NCI-H2009 | 0.863 | 0.965 | 0.924 | 0.955 | 0.873 | 0.965 | 1.03 | 1.03 | 0.802 | 1.13 | 1.11 | 1.17 | 1.09 | 0.859 | 0.891 | 0.964 | 0.712 | 0.744 | 0.966 | 1.19 |
